The record followed here is PubChem BioAssay AID179 (DTP/NCI, 2004).

pEC50, pIC50: −log10 of the molar value. Several values for one entry are separate records, joined by “and”; a condition that tells them apart may be missing. Identical values can stand only once. Activity calls are given as the source filed them.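 The calls were made as follows: active = compounds giving half or more protection of infected cells from virus-caused growth loss, again on retest; inactive = the rest.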 Where a SMILES comes first, the peptide text is derived from it. The star is where a group is joined. Boc = CC(C)(C)OC(=O)*; OBn = c1ccc(CO*)cc1

This assay relates to CEM cells HIV-1 protection, formazan growth assay. The experiment in a line: NCI AIDS Antiviral Assay. The settings on record: for pIC50: measured here: growth of uninfected CEM cells. The gist of the method: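 Screen of anti-HIV-1 activity in human CEM cells using a formazan-based growth measurement at five drug concentrations. Hits with 50% or greater protection were repeated, and confirmation required reproducible complete protection.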

Turning to `CC(C)CCN(CCC(C)C)CC(=O)Nc1ccc(S(=O)(=O)c2ccc(NC(=O)CN(CCC(C)C)CCC(C)C)cc2)cc1`, the pEC50 (in general, the EC50 on a negative log10 scale, so that one unit is a factor of ten) was under 4.00 and the negative logarithm of the IC50 (pIC50) (as a rule, the IC50 on a negative log10 scale, so that one unit is a factor of ten) is 5.79.

Regarding `O=C1NC2(CCCCC2)C(=O)N1CCN(CCCl)CCCl`, the pEC50 is under 3.43 and the negative logarithm of the IC50 (pIC50) was 3.57.

`Brc1ccc(-c2[nH]c3ccccc3c2N=Nc2ccccc2)cc1`: the pEC50 was under 3.70 and the negative-log IC50 (pIC50) is 4.87.

As for `C[C@]1(CI)OC(=O)N2CCC[C@H]21`, the pEC50 is under 3.05 and the pIC50 is under 3.05.

As for `COC(=O)C(N)CSCc1ccccc1` (configuration not stated), the pEC50 is under 3.16 and the pIC50 is 3.23.

Turning to `C=C1C2CC[C@H]3C45CO[C@@](O)(C(O)[C@@H]4C(C)(C)C=CC5=O)C3(C2)C1OC(C)=O` (some centres not stated), the pEC50 is under 3.47 and the negative logarithm of the IC50 (pIC50) is 4.63.

`C[CH2][Ge]([CH2]C)([CH2]C)[O]C(=O)C(OC(C)=O)c1ccccc1` (configuration not stated): the pEC50 is under 3.60 and the pIC50 was 3.71.

Regarding `Nc1cn(C2OC(CC(c3ccccc3)(c3ccccc3)c3ccccc3)C(O)C2O)c(=O)[nH]c1=O` (configuration not stated), the pEC50 is under 3.86 and the negative-log IC50 (pIC50) is 4.54.

Consider `CCCCNc1cc(Nc2ccc(Br)cc2)nc(N)n1`, for which the pEC50 was under 5.70 and the pIC50 is 5.97.

Take `COc1cc(/C=N/c2nncs2)ccc1O`: the pEC50 is under 4.10 and the negative-log IC50 (pIC50) was under 4.10.

For the compound `C[C@@]12C[C@@H](c3ccccc3O1)N1CCCSC1=N2`, the pEC50 was 4.13 and the pIC50 is under 3.70.

On to `CC(Oc1ccccc1)C(=O)NNC(=O)OC(C)(C)C` (configuration not stated), for which the pEC50 is under 3.70 and the pIC50 was under 3.70.

`CN(C)CCC=C1c2ccccc2C(C)(C)c2ccccc21`: the pEC50 was under 3.85 and the pIC50 is 4.60.

Turning to `CC1CC(=O)Nc2ccc(N=NN(C)C)cc2N1C=O` (configuration not stated), the pEC50 was under 3.70 and the pIC50 was under 3.70.

Turning to `O=C1CCN2CCC(=O)c3cccc1c32`, the result was inactive.

Take `CC(NC(=O)CNC(=O)OC(C)(C)C)C(=O)NC(Cc1ccccc1)C(=O)OCc1ccccc1` (stereo not drawn) (Boc-Gly-Ala-Phe-OBn; configuration not given here): the pEC50 is under 3.70 and the pIC50 was 4.11.

Take `Brc1ncnc2c1ncn2C1CCCS1` (configuration not stated): the outcome was inactive.

`COC(=O)[C@@H](NC(=O)N(Cc1ccccc1)C[C@H](CC(C)C)NC(=O)[C@@H](NC(=O)OC(C)(C)C)C(C)C)C(C)C`: the pEC50 was under 3.70 and the pIC50 was under 4.00.

`Cc1cn(COCCSCc2ccccc2)c(=O)[nH]c1=O` gave a negative-log EC50 (pEC50) of 4.23 and a pIC50 of under 3.70.

Take `CC(O)C1CC1(CO)CNc1cc(Cl)nc(N)n1` (configuration not stated): the pEC50 was under 3.70 and the pIC50 was under 3.70.

With `N#CCc1nc(-c2cc3ccccc3oc2=O)cs1`, the pEC50 is under 3.70 and the pIC50 is 4.42.

For `Cn1nc2n(c1=O)CCCN2`, the pEC50 is under 3.70 and the negative-log IC50 (pIC50) is under 3.70.

`CCCCC[C@@H]1OC(=O)/C(=C2/CC[C@@H](CCCC)O2)C(=O)[C@@H]1O`: the outcome was inactive.

With `O=C(O)[C@@H]1CSC(c2ccc(C(F)(F)F)cc2)N1` (some centres not stated), the pEC50 is under 3.70 and the pIC50 is under 3.70.

Consider `Cc1cc(NS(=O)(=O)c2ccc(Nc3c4ccccc4nc4c(C(=O)NCCO)cccc34)cc2)no1`, for which the pEC50 was under 3.70 and the negative logarithm of the IC50 (pIC50) is 4.90.

Take `COc1ccc(NS(=O)c2ccccc2OC)cc1` (configuration not stated): the pEC50 was under 3.70 and the negative-log IC50 (pIC50) is 4.82.

As to `N#Cc1nc(C(=O)c2ccccc2)oc1N`, the pEC50 is under 3.70 and the negative logarithm of the IC50 (pIC50) was under 3.70.

In the case of `COc1ccc(/C=N/NS(=O)(=O)c2ccc(NC(C)=O)cc2)cc1`, the pEC50 was under 3.28 and the negative-log IC50 (pIC50) is under 3.28.

In the case of `COC(=N)CCSSCCC(=N)OC`, the pEC50 is under 3.70 and the negative-log IC50 (pIC50) is under 3.70.

Regarding `CN(C)c1nc(N(C)C)nc(N2C(=O)c3ccccc3C2=O)n1`, the pEC50 was under 4.00 and the negative-log IC50 (pIC50) was 6.41.

For `Cc1cc(C)c(C(=O)O)c(N)c1O`, the outcome was inactive.

`CC(=O)OCCOCn1c2ccccc2c2c3c(c4c5ccccc5n(COCCO)c4c21)C(=O)N(Cc1ccccc1)C3=O`: the outcome was inactive.

`CCCC[C@@H](C)/C=C1\CN2CCC[C@H]2[C@@](C)(O)[C@@H]1O`: the pEC50 was under 3.70 and the pIC50 is 4.12.

For `CC(=O)c1ccc(NC(=S)NN)cc1`, the pEC50 is under 3.76, the result was inactive and the negative-log IC50 (pIC50) was 3.83.

With `CC1=N/C(=C\c2ccc(C)cc2)C(=O)O1`, the pEC50 is under 3.89, the outcome was inactive and the pIC50 is under 3.89.

`NC(=O)OCc1c(-c2ccccc2)nn(-c2ccccc2)c1COC(N)=O`: the pEC50 was under 3.70 and the pIC50 is under 3.70.

For the compound `CC(C)N1C(=O)C(C#N)=C(c2ccccc2)SC1c1ccccc1` (configuration not stated), the pEC50 was under 4.52 and the negative logarithm of the IC50 (pIC50) was under 4.52.

As for `COC(=O)/C=C/CCC#Cc1ccccc1C#CCC/C=C/C(=O)OC`, the pEC50 is under 3.70 and the negative-log IC50 (pIC50) was 5.55.

As for `O=S(=O)(O)CC(S(=O)(=O)O)S(=O)(=O)O`, the pEC50 is under 3.70 and the pIC50 was under 3.70.

Consider `COc1ccccc1C12OC(=O)C1(C)Oc1ccccc1C2=O` (configuration not stated), for which the result was inactive.

Consider `CC(C)(C)[Si](C)(C)OCC1OC(n2ccc(=O)[nH]c2=O)C(O[Si](C)(C)C(C)(C)C)/C1=N/O` (configuration not stated), for which the pEC50 is under 3.70 and the pIC50 was 5.39.

As for `CC1C(c2ccccc2O)c2cc3c(cc2OC1N1CCOCC1)OCO3` (configuration not stated), the pEC50 was under 3.70 and the negative logarithm of the IC50 (pIC50) was 4.37.

For `O=P(O)(O)CN1CCNCCN(CP(=O)(O)O)CCNCC1`, the pEC50 is under 3.70 and the negative-log IC50 (pIC50) was 5.00.

For `CC(=O)O[C@H]1[C@H](OC(=O)CC(C)(O)CC(=O)O)C[C@]2(C)C3=C(CCC2C1(C)C)[C@]1(C)CC[C@H]([C@H]2CC[C@H](C(C)(C)O)OC2O)[C@@]1(C)[C@@H](O)C3` (some centres not stated), the pEC50 was under 4.00 and the pIC50 was 4.31.

For the compound `CCOC(=O)[C@@H]1ON2O[C@H](OC3CCCC3(c3ccccc3)c3ccccc3)C[C@H]3OC(=O)[C@@H]1C32` (some centres not stated), the pEC50 is under 3.70 and the pIC50 was 4.49.

For `CCN(CC)CCOc1ccc(/C(C#N)=C/c2ccc3ccccc3c2)cc1`, the pEC50 is under 4.00 and the pIC50 was 6.03.

For `CC(=O)NC1C(OCc2ccccc2)OC(CO)C(O)C1OCC(=O)N1CCCC1C(=O)N[C@@H](CCC(=O)NCCNCCNc1c2ccccc2nc2cccc([N+](=O)[O-])c12)C(N)=O` (some centres not stated), the pEC50 is under 4.00 and the pIC50 was 5.82.

With `Cc1ccc(S(=O)(=O)OC2C3CCC4C(COC42)C3)cc1` (configuration not stated), the pEC50 is 4.10 and 4.11; the pIC50 is under 3.70.

For the compound `CSC(=Nc1ccc(Br)cc1)NC(=O)c1cc([N+](=O)[O-])cc([N+](=O)[O-])c1`, the pEC50 is under 3.70 and the negative logarithm of the IC50 (pIC50) was 4.46.

Take `Cc1noc(NS(=O)(=O)c2ccc(Nc3nc(CC(=O)Nc4ccccc4)cs3)cc2)c1C`: the pEC50 is under 3.70 and the pIC50 is 4.55.

Consider `O=C1OC(=O)c2cc(S(=O)(=O)c3ccc4c(c3)C(=O)OC4=O)ccc21`, for which the pEC50 is under 3.70 and the pIC50 is under 3.70.

Consider `COc1nc(N=[N+]=[N-])nc(-c2c(OC)ccc3ccccc23)n1`, for which the pEC50 is under 3.70 and the negative-log IC50 (pIC50) is 4.32.

For the compound `COc1ccc(N/C=C2\C(=O)CCc3c2oc2cc(Cl)c(O)c(Cl)c32)cc1`, the pEC50 was under 3.70 and the pIC50 was 4.54.

In the case of `COc1cc2c(cc1OC)C(Cc1ccc(OC)c(OC)c1Oc1ccccc1)N(C)CC2` (configuration not stated), the outcome was inactive.

Consider `COC(=O)/C=C/C1CC(CCCOc2ccccc2)OC(c2ccccc2)O1` (configuration not stated), for which the pEC50 is under 4.18 and the negative-log IC50 (pIC50) is under 4.18.

Regarding `CCC(C)C(NC(=O)c1ccccc1SC(=O)OCCCCCl)C(N)=O` (configuration not stated), the pEC50 was 5.56 and the pIC50 is under 3.70.

On to `CCC(=O)NC(OCC1(CC)COC1)(C(F)(F)F)C(F)(F)F`, for which the pEC50 was under 3.70 and the negative-log IC50 (pIC50) is under 3.70.

As to `CC(CS(=O)(=O)O)NC(CO)(CO)CO` (configuration not stated), the pEC50 was under 3.70 and the negative logarithm of the IC50 (pIC50) was under 3.70.

As to `O=c1ccc(=O)n(-c2ccc(Br)cc2)[nH]1`, the pEC50 was under 4.57 and the negative-log IC50 (pIC50) is under 4.57.

With `O=C(O/N=c1/ccc(=O)/c(=N\OC(=O)c2ccccc2)c1=O)c1ccccc1`, the pEC50 is under 3.70 and the pIC50 is 4.32.

For the compound `Cc1ccc(S(=O)(=O)N/N=C2/CC3CCC4CC2CC34)cc1` (configuration not stated), the pEC50 was under 3.70 and the pIC50 was 4.10.

Regarding `CCCCN(CCCC)CCCNc1c2c(nc3cc(Cl)ccc13)CCCC2`, the pEC50 was under 3.70 and the pIC50 is 4.41.

As for `Nc1nc(Cl)cc(NCC2(O)CC(CO)C2)n1` (configuration not stated), the pEC50 was under 3.70 and the negative logarithm of the IC50 (pIC50) was under 3.70.

For `CC(=O)/C(=C/N1CC(=O)NC1=S)C(=O)Nc1ccc([N+](=O)[O-])cc1`, the pEC50 was under 3.70 and the pIC50 was 3.81.

Regarding `COc1ccc(NCn2nc(CCCCCCCCc3nn(CNc4ccc(OC)cc4)c(=S)o3)oc2=S)cc1`, the pEC50 was under 3.70 and the pIC50 was 3.80.

Regarding `CC(=O)NNc1nc(C)c(C(=O)NNC(=O)C(=O)Nc2ccc([N+](=O)[O-])cc2C#N)s1`, the pEC50 was under 3.39 and the negative logarithm of the IC50 (pIC50) was 3.48.

`Nc1cc(N)c(N=Nc2ccc(/C=C\c3ccc(N=Nc4c(N)cc(N)cc4C(=O)O)cc3S(=O)(=O)O)c(S(=O)(=O)O)c2)c(C(=O)O)c1.[Zn+2]`: the negative logarithm of the EC50 (pEC50) was under 4.52 and the pIC50 is 4.63.

Consider `O=C1CC(O)c2c(Cl)sc(Cl)c21` (configuration not stated), for which the pEC50 is under 3.70 and the pIC50 is 5.28.

Turning to `CSC1CC2C(CC1(C)O)C2(C)C` (configuration not stated), the pEC50 is under 3.70; the negative-log IC50 (pIC50) was 3.79 and < 3.70.

For `CN(C(=O)c1cccs1)C(=S)N1CCN(c2ccccn2)CC1`, the pEC50 is under 3.71 and the negative-log IC50 (pIC50) is 3.96.

For `COc1cc(C)cc2ccc(Br)c(O)c12`, the pEC50 is under 3.70 and the pIC50 is under 3.70.
